From the supplement of paper PMC10307832

Key:
Assay in all cases: relative viability (nuclei count vs DMSO), 5 days (fraction); higher = more cells survive
BX 795 + Bortezomib = compound: O=C(NCCCNc1nc(Nc2cccc(NC(=O)N3CCCC3)c2)ncc1I)c1cccs1 [BX 795] + CC(C)C[C@H](NC(=O)[C@H](Cc1ccccc1)NC(=O)c1cnccn1)B(O)O [Bortezomib] (partner 0.002 µM)
Method in brief: (§1)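 The day after seeding in 1536-well plates, lung cancer cell lines were treated by pin tool with a single drug, or with a fixed anchor-drug dose together with five library-drug doses (not always all listed) in √10 steps. After 5 days, a combined fix-and-stain solution (final 0.05% Triton X-100, 1% formaldehyde, 1 ug/ml Hoechst) was added. Nuclei counted on 4× images gave relative viability as treated counts over vehicle counts, reported as the median of duplicate plates.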

BX 795 + Luminespib = compound: O=C(NCCCNc1nc(Nc2cccc(NC(=O)N3CCCC3)c2)ncc1I)c1cccs1 [BX 795] + CCNC(=O)c1noc(-c2cc(C(C)C)c(O)cc2O)c1-c1ccc(CN2CCOCC2)cc1 [Luminespib] (partner 0.01 µM)
Method in brief: as §1

BX 795 + OSI-027 = compound: O=C(NCCCNc1nc(Nc2cccc(NC(=O)N3CCCC3)c2)ncc1I)c1cccs1 [BX 795] + COc1cccc2cc(-c3nc([C@H]4CC[C@H](C(=O)O)CC4)n4ncnc(N)c34)[nH]c12 [OSI-027] (partner 0.5 µM)
Method in brief: as §1

BX 795 + Lapatinib = compound: O=C(NCCCNc1nc(Nc2cccc(NC(=O)N3CCCC3)c2)ncc1I)c1cccs1 [BX 795] + CS(=O)(=O)CCNCc1ccc(-c2ccc3ncnc(Nc4ccc(OCc5cccc(F)c5)c(Cl)c4)c3c2)o1 [Lapatinib] (partner 2 µM)
Method in brief: as §1

BX 795 + Alpelisib = compound: O=C(NCCCNc1nc(Nc2cccc(NC(=O)N3CCCC3)c2)ncc1I)c1cccs1 [BX 795] + Cc1nc(NC(=O)N2CCC[C@H]2C(N)=O)sc1-c1ccnc(C(C)(C)C(F)(F)F)c1 [Alpelisib] (partner 2 µM)
Method in brief: as §1

Cell Line | relative viability (BX 795 + Bortezomib; first compound 0.04 µM) | relative viability (BX 795 + Bortezomib; first compound 0.1265 µM) | relative viability (BX 795 + Bortezomib; first compound 0.4 µM) | relative viability (BX 795 + Bortezomib; first compound 1.265 µM) | relative viability (BX 795 + Luminespib; first compound 0.04 µM) | relative viability (BX 795 + Luminespib; first compound 0.1265 µM) | relative viability (BX 795 + Luminespib; first compound 0.4 µM) | relative viability (BX 795 + Luminespib; first compound 1.265 µM) | relative viability (BX 795 + OSI-027; first compound 0.04 µM) | relative viability (BX 795 + OSI-027; first compound 0.1265 µM) | relative viability (BX 795 + OSI-027; first compound 0.4 µM) | relative viability (BX 795 + OSI-027; first compound 1.265 µM) | relative viability (BX 795 + Lapatinib; first compound 0.04 µM) | relative viability (BX 795 + Lapatinib; first compound 0.1265 µM) | relative viability (BX 795 + Lapatinib; first compound 0.4 µM) | relative viability (BX 795 + Lapatinib; first compound 1.265 µM) | relative viability (BX 795 + Alpelisib; first compound 0.04 µM) | relative viability (BX 795 + Alpelisib; first compound 0.1265 µM) | relative viability (BX 795 + Alpelisib; first compound 0.4 µM) | relative viability (BX 795 + Alpelisib; first compound 1.265 µM)
NCI-H650 | 0.792 | 0.761 | 1.06 | 0.432 | 0.765 | 0.759 | 0.65 | 0.745 | 0.527 | 0.556 | 0.559 | 0.391 | 0.86 | 0.873 | 0.952 | 0.689 | 1.09 | 1.07 | 1.02 | 0.7
NCI-H441 | 0.393 | 0.541 | 0.747 | 0.577 | 0.323 | 0.297 | 0.333 | 0.278 | 0.731 | 0.57 | 0.891 | 0.399 |  |  |  |  | 0.779 | 0.748 | 1.42 | 0.552
HCC-827 | 1.01 | 1.01 | 1.06 | 0.986 | 0.746 | 0.657 | 0.823 | 0.644 | 0.839 | 0.81 | 0.933 | 0.763 | 0.186 | 0.18 | 0.215 | 0.191 | 1.02 | 0.975 | 1.02 | 0.924
NCI-H2023 | 0.932 | 0.965 | 0.433 | 0.675 | 0.766 | 0.613 | 0.442 | 0.272 | 0.272 | 0.398 | 0.173 | 0.182 | 0.538 | 0.749 | 0.32 | 0.522 | 0.543 | 0.575 | 0.45 | 0.352
NCI-H1975 | 0.332 | 0.414 | 0.392 | 0.249 | 0.228 | 0.427 | 0.139 | 0.183 | 0.83 | 0.7 | 0.574 | 0.424 | 0.903 | 0.982 | 0.727 | 0.512 | 0.6 | 0.671 | 0.626 | 0.406
SK-LU-1 | 0.902 | 1.12 |  | 0.708 | 0.224 | 0.217 |  | 0.173 | 0.327 | 0.427 |  | 0.245 | 0.883 | 1.1 | 0.801 | 0.469 | 1.03 | 0.946 | 0.672 | 0.479
NCI-H2347 | 1.19 | 1.05 | 1.23 | 0.934 | 0.534 | 0.563 | 0.751 | 0.607 | 0.503 | 0.541 | 0.616 | 0.352 | 0.945 | 0.903 | 1.16 | 0.914 | 1.19 | 1 | 1.11 | 0.892
SK-MES-1 |  |  |  |  | 0.857 | 0.757 | 0.78 | 0.5 | 0.471 | 0.548 | 0.224 | 0.299 | 0.509 | 0.45 | 0.458 | 0.385 | 1.02 | 0.909 | 0.925 | 0.641
NCI-H661 | 0.767 | 0.806 | 0.695 | 0.706 | 1 | 0.951 | 0.828 | 0.71 | 0.514 | 0.688 | 0.554 | 0.511 | 0.564 | 0.576 | 0.359 | 0.402 | 0.85 | 0.834 | 0.686 | 0.704
NCI-H2170 |  |  |  |  | 0.83 | 0.541 | 0.39 | 0.544 | 0.725 | 0.643 | 0.791 | 0.674 | 0.26 | 0.28 | 0.262 | 0.289 | 0.859 | 0.92 | 0.864 | 0.751
LU99A | 1.23 | 1.02 | 0.8 | 0.773 | 0.288 | 0.278 | 0.226 | 0.294 | 0.306 | 0.296 | 0.287 | 0.257 | 1.05 | 1.03 | 0.714 | 0.665 | 0.541 | 0.445 | 0.482 | 0.222
HCC-15 | 0.969 | 1.02 | 0.99 | 0.778 | 0.346 | 0.298 | 0.298 | 0.408 | 0.627 | 0.755 | 0.717 | 0.474 | 0.721 | 0.871 | 0.795 | 0.661 | 0.865 | 0.877 | 0.959 | 0.665
H3255 | 0.731 | 0.816 | 1.11 | 0.66 | 0.891 | 0.852 | 0.979 | 0.891 | 0.581 | 0.605 | 0.629 | 0.51 | 0.289 | 0.234 | 0.256 | 0.255 | 0.873 | 0.845 | 0.759 | 0.584
NCI-H2009 | 0.97 | 0.924 | 0.996 | 0.804 | 1.02 | 0.932 | 1.11 | 0.83 | 0.612 | 0.595 | 0.604 | 0.386 | 0.912 | 0.86 | 0.988 | 0.671 | 1.14 | 1.06 | 1.34 | 0.836
NCI-H322M | 1.39 | 1.26 | 1.44 | 1.39 | 0.589 | 0.915 | 0.266 | 1.03 | 0.614 | 0.587 | 0.414 | 0.559 | 0.675 | 0.616 | 0.628 | 0.684 | 0.889 | 0.846 | 0.886 | 1
NCI-H2405 | 0.965 | 1.03 | 0.91 | 0.941 | 0.718 | 0.714 | 0.573 | 0.585 | 0.75 | 0.65 | 0.66 | 0.559 | 1.21 | 1 | 0.792 | 0.733 | 0.785 | 0.735 | 0.372 | 0.626
